The test system of assay [1] is Cercospora beticola. The experiment in a line: Leaf Spot of Sugar Beets fungicidal activity (CERCBE). It is filed as in vivo. The following applies: 24 h, sugar beet, high volume, 1 Day Protectant, read-out: CERCBE % Control rating. On the procedure: All fungicides were evaluated using the aforementioned method for their activity vs. all target diseases, unless stated otherwise. Wheat leaf blotch and brown rust activity were also evaluated using track spray applications, in which case the fungicides were formulated as EC formulations, containing 0.1% Trycol 5941 in the spray solutions. Wheat plants (variety Yuma) were grown from seed in a greenhouse in 50% mineral soil/50% soil-less Metro mix until the first leaf was fully emerged, with 7-10 seedlings per pot. These plants were inoculated with an aqueous spore suspension of Zymoseptoria tritici either prior to or after fungicide treatments. After inoculation the plants were kept in 100% relative humidity (one day in a dark dew chamber followed by two to three days in a lighted dew chamber at 20° C.) to permit spores to germinate and infect the leaf. The plants were then transferred to a greenhouse set at 20° C. for disease to develop. When disease symptoms were fully expressed on the 1st leaves of untreated plants, infection levels were assessed on a scale of 0 to 100 percent disease severity. Percent disease control was calculated using the ratio of disease severity on treated plants relative to untreated plants. Sugar beet plants (variety HH88) were grown in soil-less Metro mix and trimmed regularly to maintain a uniform plant size prior to test. Plants were inoculated with a spore suspension 24 hr after fungicide treatments. Inoculated plants were kept in a dew chamber at 22° C. for 48 hr then incubated in a greenhouse set at 24° C. under a clear plastic hood with bottom ventilation until disease symptoms were fully expressed. Fungicide formulation, application and disease assessment on the sprayed leaves followed the procedures as described in the Example A.

For assay [2], the system named is Puccinia triticina. The experiment in a line: Wheat Brown Rust fungicidal activity (PUCCRT). The assay is classed as in vivo. Particulars: Low Volume Cereal Activity at 121.5 g/Ha.
Assay [3] deals with Alternaria solani. Briefly: Tomato Early Blight fungicidal activity (ALTESO). Particulars: 24 h, high volume, 1 Day Protectant, read-out: ALTESO % Control rating. The assay is classed as in vivo. On the procedure:
All fungicides were evaluated using the aforementioned method for their activity vs. all target diseases, unless stated otherwise. Wheat leaf blotch and brown rust activity were also evaluated using track spray applications, in which case the fungicides were formulated as EC formulations, containing 0.1% Trycol 5941 in the spray solutions. Wheat plants (variety Yuma) were grown from seed in a greenhouse in 50% mineral soil/50% soil-less Metro mix until the first leaf was fully emerged, with 7-10 seedlings per pot. These plants were inoculated with an aqueous spore suspension of Zymoseptoria tritici either prior to or after fungicide treatments. After inoculation the plants were kept in 100% relative humidity (one day in a dark dew chamber followed by two to three days in a lighted dew chamber at 20° C.) to permit spores to germinate and infect the leaf. The plants were then transferred to a greenhouse set at 20° C. for disease to develop. When disease symptoms were fully expressed on the 1st leaves of untreated plants, infection levels were assessed on a scale of 0 to 100 percent disease severity. Percent disease control was calculated using the ratio of disease severity on treated plants relative to untreated plants. Tomato plants (variety Outdoor Girl) were propagated in soil-less Metro mix, with each pot having one plant, and used when 12 to 14 days old. Test plants were inoculated with an aqueous spore suspension of Alternaria solani 24 hr after fungicide treatments. After inoculation the plants were kept in a dew room at 22° C. with 100% relative humidity for 48 hr to permit spores to germinate and infect the leaf. The plants were then transferred to a growth room at 22° C. for disease to develop. Fungicide formulation, application and disease assessment on the sprayed leaves followed the procedures as described in the Example A.

The test system of assay [4] is Phakopsora pachyrhizi. Briefly: Asian Soybean Rust fungicidal activity (PHAKPA). The following applies: Phakopsora pachyrhizi, in Glycine max.
Assay [5] relates to Leptosphaeria nodorum. The experiment in a line: Wheat Glume Blotch fungicidal activity (LEPTNO). The following applies: Parastagonospora nodorum, 24 h, high volume, 1 Day Protectant, read-out: LEPTNO % Control rating. It is filed as in vivo. On the procedure:
All fungicides were evaluated using the aforementioned method for their activity vs. all target diseases, unless stated otherwise. Wheat leaf blotch and brown rust activity were also evaluated using track spray applications, in which case the fungicides were formulated as EC formulations, containing 0.1% Trycol 5941 in the spray solutions. Wheat plants (variety Yuma) were grown from seed in a greenhouse in 50% mineral soil/50% soil-less Metro mix until the first leaf was fully emerged, with 7-10 seedlings per pot. These plants were inoculated with an aqueous spore suspension of Zymoseptoria tritici either prior to or after fungicide treatments. After inoculation the plants were kept in 100% relative humidity (one day in a dark dew chamber followed by two to three days in a lighted dew chamber at 20° C.) to permit spores to germinate and infect the leaf. The plants were then transferred to a greenhouse set at 20° C. for disease to develop. When disease symptoms were fully expressed on the 1st leaves of untreated plants, infection levels were assessed on a scale of 0 to 100 percent disease severity. Percent disease control was calculated using the ratio of disease severity on treated plants relative to untreated plants. Wheat plants (variety Yuma) were grown from seed in a greenhouse in 50% mineral soil/50% soil-less Metro mix until the first leaf was fully emerged, with 7-10 seedlings per pot. These plants were inoculated with an aqueous spore suspension of Leptosphaeria nodorum 24 hr after fungicide treatments. After inoculation the plants were kept in 100% relative humidity (one day in a dark dew chamber followed by two days in a lighted dew chamber at 20° C.) to permit spores to germinate and infect the leaf. The plants were then transferred to a greenhouse set at 20° C. for disease to develop. Fungicide formulation, application and disease assessment followed the procedures as described in the Example A.

Where [6] appears, read: 24 h, 1 Day Protectant, read-out: PUCCRT 1DP (Wheat Brown Rust, 1 Day Protectant).
The mark [7] stands for this setting: 72 h, 3 Day Curative, read-out: PUCCRT 3DC (Wheat Brown Rust, 3 Day Curative).
Setting [8] is: 24 h, read-out: PHAKPA 1DP % Control rating, soybean, high volume, 25 ppm, 1 Day Protectant.
Setting [9] is: 72 h, read-out: PHAKPA 3DC % Control rating, soybean, high volume, 25 ppm, 3 Day Curative.

Structures are written as SMILES. Like-named read-outs stand apart in the source and are kept apart here.

Regarding `COc1ccnc(C(=O)N[C@@H](C)C(=O)O[C@@H](C)[C@H](Oc2ccccc2)c2ccccc2)c1OCOC(C)=O` [Example 183], the pest or weed control at 100 ppm in assay [1] was greater than 80%; in assay [3], less than 80%; in assay [5] it was greater than 80%. The pest or weed control at 121.5 g/ha in assay [2] (setting [6]) and in assay [2] (setting [7]) was greater than 80% in each case. The pest or weed control at 25 ppm in assay [4] (setting [8]) and in assay [4] (setting [9]) was less than 80% each time.

Take `COc1ccnc(C(=O)N[C@@H](C)C(=O)O[C@@H](C)C(Oc2ccc(F)cc2)c2ccc(F)cc2)c1OCOC(C)=O` (stereo partly drawn) [Example 238]: the pest or weed control at 100 ppm in assay [1], in assay [3] and in assay [5] was greater than 80% in each case. Moreover, the pest or weed control at 121.5 g/ha in assay [2] (setting [6]) and in assay [2] (setting [7]) was greater than 80% in each case. In addition, the pest or weed control at 25 ppm in assay [4] (setting [8]) and in assay [4] (setting [9]) was less than 80% each time.

For the molecule `COc1cc(F)ccc1[C@@H](Oc1ccccc1)[C@H](C)OC(=O)[C@H](C)NC(=O)c1nccc(OC)c1OCOC(C)=O` [Example 256], the pest or weed control at 100 ppm in assay [1] was greater than 80%; in assay [3], less than 80%; in assay [5] it was greater than 80%. Also, the pest or weed control at 121.5 g/ha in assay [2] (setting [6]) and in assay [2] (setting [7]) was greater than 80% throughout. Further, the pest or weed control at 25 ppm is greater than 80% in assay [4] (setting [8]) and less than 0% in assay [4] (setting [9]).

Values taken from patent US20180002288A1, “USE OF PICOLINAMIDES AS FUNGICIDES” (DOW AGROSCIENCES LLC, priority 2014, published 2018).
